From publication PMC12596568, “Retention of a SulP-family bicarbonate transporter in a periplasmic N2-fixing cyanobacterial endosymbiont of an open ocean diatom” (The ISME Journal, 2025)

Test system: RintRC_3892
Settings: read-out: K0.5; 20 mM TES-KOH pH 8, 30-33 mM NaCl (Na+-dependent), 30°C, light; labelled compound; n = 5; actual K0.5 might be somewhat higher because of non-labelled bicarbonate

For `O=C(O)O` [bicarbonate], the Km was ~464 µM.
